Laboratory results from patent publication US20260365670A1, “EGFR INHIBITORS AND USES THEREOF” (DIZAL (JIANGSU) PHARMACEUTICAL CO., LTD., priority 2022, published 2026).
Like-named read-outs stand apart in the source and are kept apart here.

Assays:
[1] = molecular target: T1, EGFR wild type (Homo sapiens, UniProt P00533); experiment: Inhibition of EGFR wild type biochemical enzymatic activity (HTRF); conditions: 1 mM ATP
T1 construct: purchased Carna Bio
In short: (§1)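 Compounds at varying concentrations were tested against each EGFR form using 1 mM ATP and 1 μM TK Substrate-biotin. Reactions ran 1 h at room temperature in Mg2+/Mn2+ buffer with CHAPS, DTT and 0.5% DMSO. Time-resolved fluorescence gave IC50 by four-parameter fit.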

[2] = tested on: Ba/F3 cells expressing EGFR mutations; experiment: Cell proliferation assay, Ba/F3 cells expressing EGFR mutations (CellTiter-Glo, 72 hours); assay type: cell-based
In short: (§2)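 GI50 is the concentration giving 50% proliferation inhibition. Growth for this was normalised to a baseline viability reading taken when compound was added, and to DMSO wells. PC-9 (500 cells/well) and mutant-EGFR Ba/F3 (5000 cells/well) are treated after overnight seeding in RPMI1640-based medium.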

[3] = molecular target: T2, EGFR Exon19Del (Homo sapiens, UniProt P00533, DEL746-750); experiment: Inhibition of EGFR Exon19Del biochemical enzymatic activity (HTRF); conditions: read-out: IC50 @Del19
T2 construct: purchased Carna Bio
In short: as §1

[4] = molecular target: T3, EGFR[T790M/C797S/L858R] (Homo sapiens, UniProt P00533, C797S/L858R/T790M); experiment: Inhibition of EGFR[T790M/C797S/L858R] biochemical enzymatic activity (HTRF); conditions: 1 mM ATP
T3 construct: purchased Carna Bio
T3 sequence (P00533 25-1210 T790M/C797S/L858R): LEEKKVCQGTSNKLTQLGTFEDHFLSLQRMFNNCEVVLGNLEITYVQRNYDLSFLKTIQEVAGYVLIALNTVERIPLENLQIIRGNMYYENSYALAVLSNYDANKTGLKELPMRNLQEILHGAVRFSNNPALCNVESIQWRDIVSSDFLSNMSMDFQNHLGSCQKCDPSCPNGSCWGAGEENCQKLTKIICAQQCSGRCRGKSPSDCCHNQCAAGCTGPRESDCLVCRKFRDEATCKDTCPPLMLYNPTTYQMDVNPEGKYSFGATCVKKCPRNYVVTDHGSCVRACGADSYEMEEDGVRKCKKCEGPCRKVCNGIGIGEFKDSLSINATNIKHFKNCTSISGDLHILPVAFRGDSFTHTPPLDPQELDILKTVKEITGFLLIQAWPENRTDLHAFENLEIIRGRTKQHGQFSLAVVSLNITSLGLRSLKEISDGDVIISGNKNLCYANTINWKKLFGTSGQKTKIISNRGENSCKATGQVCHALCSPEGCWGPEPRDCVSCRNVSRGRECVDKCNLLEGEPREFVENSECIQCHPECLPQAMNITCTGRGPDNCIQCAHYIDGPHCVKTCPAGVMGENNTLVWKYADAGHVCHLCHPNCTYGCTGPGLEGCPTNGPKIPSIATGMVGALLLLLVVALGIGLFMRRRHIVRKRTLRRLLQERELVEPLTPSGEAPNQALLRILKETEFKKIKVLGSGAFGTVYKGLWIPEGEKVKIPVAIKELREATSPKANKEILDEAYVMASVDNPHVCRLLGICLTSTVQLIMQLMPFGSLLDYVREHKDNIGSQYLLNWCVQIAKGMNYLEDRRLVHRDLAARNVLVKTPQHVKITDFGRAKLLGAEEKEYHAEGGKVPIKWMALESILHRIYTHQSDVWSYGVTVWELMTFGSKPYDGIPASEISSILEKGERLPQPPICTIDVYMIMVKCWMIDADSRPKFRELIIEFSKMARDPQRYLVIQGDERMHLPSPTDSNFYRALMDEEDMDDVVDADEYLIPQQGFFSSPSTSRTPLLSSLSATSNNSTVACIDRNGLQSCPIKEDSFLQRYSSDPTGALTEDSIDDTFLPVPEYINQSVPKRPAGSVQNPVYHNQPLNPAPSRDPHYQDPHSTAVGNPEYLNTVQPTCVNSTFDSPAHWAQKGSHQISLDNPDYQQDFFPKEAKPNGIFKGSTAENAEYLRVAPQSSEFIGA
In short: as §1

[5] = molecular target: T4, EGFR Exon19Del/T790M (Homo sapiens, UniProt P00533, DEL746-750/T790M); experiment: Inhibition of EGFR Exon19Del/T790M biochemical enzymatic activity (HTRF); conditions: 1 mM ATP
T4 construct: purchased Carna Bio
In short: as §1

[6] = molecular target: T5, EGFR (d746-750 C797S) (Homo sapiens, UniProt P00533, C797S/DEL746-750); experiment: Inhibition of EGFR (d746-750 C797S) biochemical enzymatic activity (HTRF); conditions: 1 mM ATP
T5 construct: purchased signalchem
T5 sequence (P00533 with tags, fused parts or gaps DEL746-750/C797S limits assumed): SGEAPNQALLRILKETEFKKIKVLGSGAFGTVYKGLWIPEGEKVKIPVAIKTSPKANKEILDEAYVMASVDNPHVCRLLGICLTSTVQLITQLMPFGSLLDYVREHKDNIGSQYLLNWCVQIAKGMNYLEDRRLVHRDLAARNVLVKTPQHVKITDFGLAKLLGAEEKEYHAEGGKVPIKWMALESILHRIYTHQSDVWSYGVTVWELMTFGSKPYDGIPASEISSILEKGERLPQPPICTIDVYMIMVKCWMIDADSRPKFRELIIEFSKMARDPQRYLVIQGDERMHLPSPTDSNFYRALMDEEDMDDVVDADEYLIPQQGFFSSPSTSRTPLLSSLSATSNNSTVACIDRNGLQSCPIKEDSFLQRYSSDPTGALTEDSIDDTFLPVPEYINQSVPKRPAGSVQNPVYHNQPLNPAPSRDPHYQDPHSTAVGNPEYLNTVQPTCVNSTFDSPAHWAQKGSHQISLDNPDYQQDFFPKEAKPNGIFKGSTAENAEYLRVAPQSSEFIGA
In short: as §1

[7] = molecular target: T6, EGFR (C797S L858R) (Homo sapiens, UniProt P00533, C797S/L858R); experiment: Inhibition of EGFR (C797S L858R) biochemical enzymatic activity (HTRF); conditions: 1 mM ATP
T6 construct: purchased signalchem
T6 sequence (P00533 25-1210 C797S/L858R): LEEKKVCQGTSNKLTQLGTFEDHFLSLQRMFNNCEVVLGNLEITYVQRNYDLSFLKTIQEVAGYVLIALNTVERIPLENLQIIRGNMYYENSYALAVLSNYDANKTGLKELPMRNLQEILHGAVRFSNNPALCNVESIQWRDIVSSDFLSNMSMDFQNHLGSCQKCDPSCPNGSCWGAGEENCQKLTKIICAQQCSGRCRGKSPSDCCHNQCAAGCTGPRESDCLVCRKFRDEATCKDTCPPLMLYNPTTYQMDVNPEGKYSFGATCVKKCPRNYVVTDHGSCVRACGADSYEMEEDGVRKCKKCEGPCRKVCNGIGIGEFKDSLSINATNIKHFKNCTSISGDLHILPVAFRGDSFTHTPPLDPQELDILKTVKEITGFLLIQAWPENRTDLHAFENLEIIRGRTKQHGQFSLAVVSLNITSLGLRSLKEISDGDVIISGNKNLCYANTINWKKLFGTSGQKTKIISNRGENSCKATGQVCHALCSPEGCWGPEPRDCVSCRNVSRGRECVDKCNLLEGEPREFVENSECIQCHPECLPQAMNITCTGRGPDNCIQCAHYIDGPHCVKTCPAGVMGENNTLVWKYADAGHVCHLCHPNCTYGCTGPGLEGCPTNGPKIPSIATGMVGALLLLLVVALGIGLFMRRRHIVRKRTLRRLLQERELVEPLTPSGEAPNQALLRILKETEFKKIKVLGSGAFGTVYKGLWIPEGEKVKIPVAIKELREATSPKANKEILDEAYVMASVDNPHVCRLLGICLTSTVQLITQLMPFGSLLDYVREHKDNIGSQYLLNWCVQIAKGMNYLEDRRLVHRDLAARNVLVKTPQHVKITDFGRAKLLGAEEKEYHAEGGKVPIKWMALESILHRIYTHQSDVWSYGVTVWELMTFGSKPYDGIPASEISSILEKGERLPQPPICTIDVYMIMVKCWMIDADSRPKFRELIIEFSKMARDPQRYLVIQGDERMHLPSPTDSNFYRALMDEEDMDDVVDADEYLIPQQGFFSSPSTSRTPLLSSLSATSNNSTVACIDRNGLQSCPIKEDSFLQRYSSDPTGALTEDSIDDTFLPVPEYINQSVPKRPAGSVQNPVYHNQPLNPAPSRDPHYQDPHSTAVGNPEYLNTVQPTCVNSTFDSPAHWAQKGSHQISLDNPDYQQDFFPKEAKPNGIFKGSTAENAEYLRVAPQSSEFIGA
In short: as §1

[8] = molecular target: T7, EGFR L858R/T790M (Homo sapiens, UniProt P00533, L858R/T790M); experiment: Inhibition of EGFR L858R/T790M biochemical enzymatic activity (HTRF); conditions: 1 mM ATP
T7 construct: purchased Carna Bio
In short: as §1

[9] = molecular target: T8, EGFR[T790M/C797S/d746-750] (Homo sapiens, UniProt P00533, C797S/DEL746-750/T790M); experiment: Inhibition of EGFR[T790M/C797S/d746-750] biochemical enzymatic activity (HTRF)
T8 construct: purchased Carna Bio
T8 sequence (P00533 with tags, fused parts or gaps DEL746-750/T790M/C797S limits assumed): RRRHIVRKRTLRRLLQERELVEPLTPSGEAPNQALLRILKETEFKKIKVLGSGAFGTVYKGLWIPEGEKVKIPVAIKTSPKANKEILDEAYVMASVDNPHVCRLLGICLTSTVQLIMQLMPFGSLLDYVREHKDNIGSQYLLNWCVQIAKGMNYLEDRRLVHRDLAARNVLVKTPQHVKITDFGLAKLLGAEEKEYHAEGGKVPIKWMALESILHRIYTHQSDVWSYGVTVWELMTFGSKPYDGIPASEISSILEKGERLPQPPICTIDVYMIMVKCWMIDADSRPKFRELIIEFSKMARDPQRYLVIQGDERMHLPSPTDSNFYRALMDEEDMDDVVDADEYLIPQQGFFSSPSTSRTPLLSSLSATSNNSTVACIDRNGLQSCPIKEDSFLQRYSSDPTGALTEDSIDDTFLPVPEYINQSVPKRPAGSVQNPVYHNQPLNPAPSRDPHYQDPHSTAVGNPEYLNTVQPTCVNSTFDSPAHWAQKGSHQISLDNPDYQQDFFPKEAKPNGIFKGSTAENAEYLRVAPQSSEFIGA
In short: as §1

[10] = tested on: PC-9; experiment: Cell proliferation assay, PC-9 cells (CellTiter-Glo, 72 hours); assay type: cell-based; conditions: PC9 cells, read-out: GI50 PC9
In short: as §2

[11] = tested on: A-431; experiment: Cell proliferation assay, A-431 cells (GI50, Table 6); assay type: cell-based
[12] = molecular target: T9, EGFR L858R (Homo sapiens, UniProt P00533, L858R); experiment: Inhibition of EGFR L858R biochemical enzymatic activity (HTRF); conditions: 1 mM ATP
T9 construct: purchased Carna Bio
T9 sequence (P00533 25-1210 L858R): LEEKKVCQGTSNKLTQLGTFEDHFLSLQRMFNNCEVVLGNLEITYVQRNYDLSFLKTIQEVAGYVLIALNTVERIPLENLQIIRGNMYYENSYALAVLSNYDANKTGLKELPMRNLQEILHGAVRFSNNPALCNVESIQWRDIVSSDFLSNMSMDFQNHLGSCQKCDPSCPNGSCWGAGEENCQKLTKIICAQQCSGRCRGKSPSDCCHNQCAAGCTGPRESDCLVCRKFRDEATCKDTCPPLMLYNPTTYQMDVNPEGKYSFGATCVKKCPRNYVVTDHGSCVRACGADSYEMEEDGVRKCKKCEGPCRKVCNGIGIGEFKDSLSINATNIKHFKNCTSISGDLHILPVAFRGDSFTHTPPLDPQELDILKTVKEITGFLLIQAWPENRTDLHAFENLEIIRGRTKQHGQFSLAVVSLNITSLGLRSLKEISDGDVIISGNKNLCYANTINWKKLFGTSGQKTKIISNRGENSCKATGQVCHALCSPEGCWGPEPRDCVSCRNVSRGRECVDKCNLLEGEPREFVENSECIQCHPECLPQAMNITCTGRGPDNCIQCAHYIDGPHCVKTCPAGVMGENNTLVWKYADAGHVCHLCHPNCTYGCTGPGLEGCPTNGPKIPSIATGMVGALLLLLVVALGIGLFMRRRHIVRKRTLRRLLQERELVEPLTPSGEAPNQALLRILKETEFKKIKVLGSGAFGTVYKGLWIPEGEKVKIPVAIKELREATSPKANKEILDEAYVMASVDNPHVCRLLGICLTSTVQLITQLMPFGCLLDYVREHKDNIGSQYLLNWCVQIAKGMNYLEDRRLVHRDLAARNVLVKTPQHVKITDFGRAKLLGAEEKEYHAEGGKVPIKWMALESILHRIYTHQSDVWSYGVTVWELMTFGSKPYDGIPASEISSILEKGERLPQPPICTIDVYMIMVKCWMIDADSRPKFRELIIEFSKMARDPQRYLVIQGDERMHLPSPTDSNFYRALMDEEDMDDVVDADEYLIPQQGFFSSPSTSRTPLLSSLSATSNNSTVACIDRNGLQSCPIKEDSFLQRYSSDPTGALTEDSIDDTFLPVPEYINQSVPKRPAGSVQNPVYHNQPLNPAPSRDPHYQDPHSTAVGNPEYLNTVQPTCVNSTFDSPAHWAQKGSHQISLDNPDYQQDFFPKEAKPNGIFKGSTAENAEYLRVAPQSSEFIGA
In short: as §1

[13] = EGFR wild type, 1 h at room temperature, read-out: IC50 @WT
[14] = Mus musculus, BaF3, 72 h, BaF3 cells, EGFR DEL19 - C797S, read-out: GI50 DEL19 - C797S/BaF3
[15] = Mus musculus, BaF3, 72 h, BaF3 cells, EGFR L858R - C797S, read-out: GI50 L858R - C797S/BaF3
[16] = Mus musculus, BaF3, 72 h, BaF3 cells, EGFR L858R - T790-C797S, read-out: GI50 L858R - T790-C797S/BaF3
[17] = Mus musculus, BaF3, 72 h, BaF3 cells, EGFR L858R - T790M, read-out: GI50 L858R - T790M/BaF3
[18] = Mus musculus, BaF3, 72 h, BaF3 cells, EGFR L858R, read-out: GI50 L858R/BaF3
[19] = Mus musculus, BaF3, 72 h, EGFR DEL19 - T790M, read-out: GI50 DEL19 - T790M
[20] = EGFR Exon19Del, 1 mM ATP, 1 h at room temperature
[21] = EGFR[T790M/C797S/L858R], 1 h at room temperature, read-out: IC50 @T790M- C797S - L858R
[22] = EGFR Exon19Del/T790M, 1 h at room temperature, read-out: IC50 @Del19-T790M
[23] = EGFR (d746-750 C797S), 1 h at room temperature, read-out: IC50 @Del19-C797S
[24] = EGFR (C797S L858R), 1 h at room temperature, read-out: IC50 @L858-C797S
[25] = EGFR L858R/T790M, 1 h at room temperature, read-out: IC50 @L858R-T790M
[26] = EGFR[T790M/C797S/d746-750], 1 mM ATP, 1 h at room temperature, read-out: IC50 @T790M - C797S - Del19
[27] = Homo sapiens, A-431, A-431 cells
[28] = 1 h at room temperature, read-out: IC50 @L858R
[29] = Mus musculus, BaF3, 72 h, BaF3 cells, EGFR DEL19 - T790-C797S, read-out: GI50 DEL19 - T790-C797S/BaF3
[30] = BaF3 cells, EGFR DEL19 - C797S, read-out: GI50 DEL19 - C797S/BaF3
[31] = BaF3 cells, EGFR DEL19 - T790-C797S, read-out: GI50 DEL19 - T790-C797S/BaF3
[32] = BaF3 cells, EGFR L858R - C797S, read-out: GI50 L858R - C797S/BaF3
[33] = BaF3 cells, EGFR L858R - T790-C797S, read-out: GI50 L858R - T790-C797S/BaF3
[34] = BaF3 cells, EGFR L858R - T790M, read-out: GI50 L858R - T790M/BaF3
[35] = BaF3 cells, EGFR L858R, read-out: GI50 L858R/BaF3
[36] = EGFR DEL19 - T790M, read-out: GI50 DEL19 - T790M

| IC50 [1, 13] [nM] | GI50 [2, 14] [nM] | GI50 [2, 15] [nM] | GI50 [2, 16] [nM] | GI50 [2, 17] [nM] | GI50 [2, 18] [nM] | GI50 [2, 19] [nM] | IC50 [3, 20] [nM] | IC50 [4, 21] [nM] | IC50 [5, 22] [nM] | IC50 [6, 23] [nM] | IC50 [7, 24] [nM] | IC50 [8, 25] [nM] | IC50 [9, 26] [nM] | GI50 ([10]; Homo sapiens, PC-9, 72 h) [nM] | GI50 [11, 27] [nM] | IC50 [12, 28] [nM] | GI50 [2, 29] [nM] | GI50 [2, 30] [nM] | GI50 [2, 31] [nM] | Compound | other results |
| --- | --- | --- | --- | --- | --- | --- | --- | --- | --- | --- | --- | --- | --- | --- | --- | --- | --- | --- | --- | --- | --- |
| > 5000 | 57 | 297 | 8.8 | 308 | 286 | 29 | 497 | 55 | 7.1 | 197 | > 5000 | 446 | 3.2 | 438 | 3230 | > 5000 | – | – | – | Cc1cc2cc(n1)-c1cnn(C)c1OCCCCCn1c(nc3ccc4c(c31)CCNC4)NC2=O [Example B16, 5,30-dimethyl-7-oxa-4,5,13,18,24,26,31-heptaazahexacyclo[26.3.1.0^{2,6}.0^{13,25}.0^{14,23}.0^{15,20}]dotriaconta-1(31),2(6),3,14,20,22,24,28(32),29-nonaen-27-one] | – |
| – | 62 | 69 | 7.7 | 16 | 35 | 48 | – | – | – | – | – | – | – | 145 | 2830 | – | 42 | – | – | Cc1cc2cc(n1)-c1cnn(C3CC3)c1OCCN(CC(F)(F)F)CCn1c(nc3ccccc31)NC2=O [Example B6, 5-cyclopropyl-26-methyl-10-(2,2,2-trifluoroethyl)-7-oxa-4,5,10,13,20,22,27-heptaazapentacyclo[22.3.1.0^{2,6}.0^{13,21}.0^{14,19}]octacosa-1(27),2(6),3,14,16,18,20,24(28),25-nonaen-23-one] | IC50 ([1]; EGFR WT, 1 h, room temperature, read-out: IC50 (nM) @WT): > 5000 nM; IC50 ([3]; EGFR Del19, 1 mM ATP, 1 h, room temperature): 197 nM; IC50 ([4]; EGFR T790M-C797S-L858R, 1 h, room temperature, read-out: IC50 (nM) @T790M- C797S - L858R): 3.1 nM; IC50 ([5]; EGFR Del19-T790M, 1 h, room temperature, read-out: IC50 (nM) @Del19-T790M): 5.2 nM; IC50 ([6]; EGFR Del19-C797S, 1 h, room temperature, read-out: IC50 (nM) @Del19-C797S): 112 nM; IC50 ([7]; EGFR L858-C797S, 1 h, room temperature, read-out: IC50 (nM) @L858-C797S): 390 nM; IC50 ([8]; EGFR L858R-T790M, 1 h, room temperature, read-out: IC50 (nM) @L858R-T790M): 9 nM; IC50 ([9]; EGFR T790M-C797S-Del19, 1 mM ATP, 1 h, room temperature, read-out: IC50 (nM) @T790M - C797S - Del19): 3.6 nM; IC50 ([12]; 1 h, room temperature, read-out: IC50 (nM) @L858R): 1090 nM |
| > 5000 | 26 | 82 | 6 | 21 | 114 | 8.7 | > 5000 | 4160 | 128 | 2110 | > 5000 | > 5000 | 51 | 71 | 1090 | > 5000 | 10 | – | – | Cc1cc2cc(n1)-c1cnn(C)c1OCCCCCn1c(nc3ccc4c(c31)CCN(C1COC1)C4)NC2=O [Example B17, 5,30-Dimethyl-18-(oxetan-3-yl)-7-oxa-4,5,13,18,24,26,31-heptaazahexacyclo[26.3.1.0^{2,6}.0^{13,25}.0^{14,23}.0^{15,20}]dotriaconta-1(31),2(6),3,14,20,22,24,28(32),29-nonaen-27-one] | – |
| 2970 | – | – | – | – | – | – | 13 | 3 | 6.9 | 4.5 | 44 | 6.7 | 3.4 | – | – | 142 | – | 2 | 2 | Cc1cc2cc(n1)-c1cnn(C)c1OCCN1CC3CCC(C3)(C1)n1c(nc3ccc(N4CC(N5CCOCC5)C4)cc31)NC2=O (single isomer, unassigned) [Example B48B] | GI50 [2, 32]: 6 nM; GI50 [2, 33]: 2 nM; GI50 [2, 34]: 2 nM; GI50 [2, 35]: 13 nM; GI50 [2, 36]: 2 nM; GI50 [10]: 12 nM; GI50 ([11]; A-431 cells): 1370 nM |
| > 5000 | 24 | 101 | 4 | 18 | 167 | 7 | 20 | 4.2 | 6.6 | 9.4 | 126 | 7.7 | 3.3 | 178 | 7730 | 282 | 8 | – | – | Cc1cc2cc(n1)-c1cnn(C)c1OCCN1CC3CCC(CC3)(C1)n1c(nc3ccc(N4CCN(C(C)C)CC4)cc31)NC2=O [Example B39] | – |
| 489 | – | – | – | – | – | – | 6.6 | 2.3 | 5.2 | 3 | 9 | 4.8 | 3 | – | 437 | 36 | – | 2 | 2 | Cc1cc2cc(n1)-c1cnn(C)c1OCCN1CC3CCC(C3)(C1)n1c(nc3ccc(N4CC5CN(C)CC5C4)cc31)NC2=O (single isomer, unassigned) [Example B43B] | GI50 [2, 32]: 7 nM; GI50 [2, 33]: 2 nM; GI50 [2, 34]: 2 nM; GI50 [2, 35]: 12 nM; GI50 [2, 36]: 2 nM; GI50 [10]: 7 nM |
| 413 | – | – | – | – | – | – | 5.1 | 1.5 | 3.6 | 2.1 | 7 | 3 | 2.4 | – | 1570 | 26 | – | 2 | 2 | Cc1cc2cc(n1)-c1cnn(C)c1OCCN1CC3CCC(C3)(C1)n1c(nc3ccc(N4CCC5(CN(C)C5)C4)cc31)NC2=O (single isomer, unassigned) [Example B50B] | GI50 [2, 32]: 4 nM; GI50 [2, 33]: 2 nM; GI50 [2, 34]: 2 nM; GI50 [2, 35]: 7 nM; GI50 [2, 36]: 2 nM; GI50 [10]: 8 nM |
